Patent US20210402016A1, “RADIOLABELED BOMBESIN-DERIVED COMPOUNDS FOR IN VIVO IMAGING OF GASTRIN-RELEASING PEPTIDE RECEPTOR (GRPR) AND TREATMENT OF GRPR-RELATED DISORDERS” (Provincial Health Services Authority, priority 2018, published 2021)
“And” between values parts separate entries of the source, which are not always exact repeats. Identical values can stand only once.

Experiments:
[1] = test system: PC-3 xenograft bearing mice; settings: PET/CT, PC-3 tumor-bearing mice
Method: Animal experiments were approved by the Animal Ethics Committee of the University of British Columbia. Male NOD.Cg-Rag1^tm1Mom∥2rg^tm1Wjl/SzJ (NRG) mice obtained from an in-house colony were subcutaneously inoculated with 5×10^6 PC-3 cells (100 μL; 1:1 PBS/Matrigel), and tumors were grown for 2 to 3 weeks.
Mice were sedated and scanned (Siemens Inveon microPET/CT) with body temperature maintained by heating pad. […] PET data were acquired in list mode, reconstructed using 3-dimensional ordered-subsets expectation maximization (2 iterations) followed by a fast maximum a priori algorithm (18 iterations) with CT-based attenuation correction. Images were analyzed using the Inveon Research Workplace software (Siemens Healthineers).

[2] = test system: PC-3 xenograft bearing mice; assay: Biodistribution in PC-3 tumor-bearing NRG mice (Example 1); assay type: in vivo
Method: The mice were sacrificed by CO2 inhalation at 30 min, 1 h, and 2 h p.i. Blood was collected by cardiac puncture. Organs/tissues were harvested, rinsed with PBS, blotted dry, and weighed. The activity in tissues was assayed by gamma counter and expressed as the percentage injected dose per gram of tissue (% ID/g).

[3] = test system: nude mice bearing PC-3 tumors; settings: Dalm et al.; cited from earlier work
[4] = test system: PC-3 cells; assay: Fluorometric calcium release assay (FLIPR Calcium 6); assay type: cell-based, human
Method: Calcium release assays were performed using a FLIPR Calcium 6 assay kit (Molecular Devices) according to published procedures (26). Briefly, 5×10^4 PC-3 cells were seeded overnight in 96-well clear bottom black plates. The growth medium was replaced with loading buffer containing a calcium-sensitive dye and incubated for 30 min at 37° C. The plate was placed in a FlexStation 3 microplate reader (Molecular Devices) and baseline fluorescent signals were acquired for 15 sec. […] The relative fluorescence unit (RFU=Max-Min) was used to determine the agonistic/antagonistic properties.

[5] = target: T1, human GRPR (Homo sapiens, UniProt P30550); assay: Competition binding assay, displacement of [^125I-Tyr^4]Bombesin on PC-3 cells
T1 construct: endogenous in cells; host or cells: PC-3 human prostate adenocarcinoma cells (whole cells)
Method: Cells were incubated 30-60 min at 37° C.

[6] = target: T2, GRPR (Mus musculus, UniProt P21729); settings: determined using Swiss 3T3 cells; read-out: Reported Ki value; cited from earlier work
T2 construct: the latter value was determined using Swiss 3T3 cells (17); host or cells: Swiss 3T3 cells
T2 sequence (P21729 whole entry): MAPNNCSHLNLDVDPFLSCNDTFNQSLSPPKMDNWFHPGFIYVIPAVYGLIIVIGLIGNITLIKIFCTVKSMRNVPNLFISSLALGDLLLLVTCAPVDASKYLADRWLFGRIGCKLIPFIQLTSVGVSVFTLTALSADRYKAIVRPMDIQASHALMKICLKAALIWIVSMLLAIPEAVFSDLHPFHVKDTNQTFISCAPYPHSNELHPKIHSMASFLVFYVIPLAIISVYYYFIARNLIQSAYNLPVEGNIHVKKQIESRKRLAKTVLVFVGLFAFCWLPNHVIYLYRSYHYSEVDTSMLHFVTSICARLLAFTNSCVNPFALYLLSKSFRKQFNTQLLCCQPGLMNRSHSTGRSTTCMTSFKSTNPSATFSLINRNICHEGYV

T1 sequence (P30550 whole entry): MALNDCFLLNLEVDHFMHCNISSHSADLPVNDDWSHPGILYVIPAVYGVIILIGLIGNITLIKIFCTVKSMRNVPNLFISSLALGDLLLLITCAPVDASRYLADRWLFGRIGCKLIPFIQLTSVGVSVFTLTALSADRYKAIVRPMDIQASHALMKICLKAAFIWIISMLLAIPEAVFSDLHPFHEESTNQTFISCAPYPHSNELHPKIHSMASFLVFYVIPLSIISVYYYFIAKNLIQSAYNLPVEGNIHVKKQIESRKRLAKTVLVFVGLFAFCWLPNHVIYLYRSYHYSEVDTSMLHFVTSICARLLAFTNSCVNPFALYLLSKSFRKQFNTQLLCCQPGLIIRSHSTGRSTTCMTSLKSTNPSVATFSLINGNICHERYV

Compound: CC(C)CC(CC(C)C)NC(=O)[C@H](Cc1cnc[nH]1)NC(=O)CNC(=O)[C@@H](NC(=O)[C@H](C)NC(=O)[C@H](Cc1c[nH]c2ccccc12)NC(=O)[C@H](CCC(N)=O)NC(=O)[C@@H](Cc1ccccc1)NC(=O)COCC(=O)Nc1ccc(CNC(=O)CN2CCN(CC(=O)O)CCN(CC(=O)O)CCN(CC(=O)O)CC2)cc1)C(C)C [^68Ga-NeoBOMB1, metal not drawn, reference compound]
- Excretion / clearance pathway [1]: both the hepatobiliary and renal pathways
- Biodistribution PC-3 Tumor, Mean ([2]; 30 min p.i.): 9.60±0.99 % ID/g
- Biodistribution Pancreas, Mean ([2]; 30 min p.i.): 95.7±12.7 % ID/g
- Biodistribution PC-3 Tumor, Mean ([2]; 60 min p.i.): 9.83±1.48 % ID/g
- Biodistribution Pancreas, Mean ([2]; 60 min p.i.): 122±28.4 % ID/g and 123±28.4 % ID/g
- Biodistribution Blood, Mean ([2]; 120 min p.i.): 0.45±0.10 % ID/g
- Biodistribution PC-3 Tumor, Mean ([2]; 120 min p.i.): 12.1±3.72 % ID/g
- Biodistribution Pancreas, Mean ([2]; 120 min p.i.): 139±26.8 % ID/g
- Uptake in pancreas [3]: ~15 % ID/g
- Uptake in tumor [3]: ~10 % ID/g

Compound: Nc1ncnc2c1ncn2[C@@H]1O[C@H](COP(=O)(O)OP(=O)(O)OP(=O)(O)O)[C@@H](O)[C@H]1O [ATP, adenosine triphosphate, reference compound]
- Intracellular calcium release ([4]; 50 nM): 511±45.5 RFUs

Compound: CC(C)CC(CC(C)C)NC(=O)[C@H](Cc1c[nH]cn1)NC(=O)CNC(=O)[C@@H](NC(=O)[C@H](C)NC(=O)[C@H](Cc1c[nH]c2ccccc12)NC(=O)[C@H](CCC(N)=O)NC(=O)[C@@H](Cc1ccccc1)NC(=O)COCC(=O)Nc1ccc(CNC(=O)CN2CCN(CC(=O)O)CCN(CC(=O)O)CCN(CC(=O)O)CC2)cc1)C(C)C [Ga-NeoBOMB1, reference compound]
- Ki [5]: 1.71 ± 0.28 nM

Compound: [D-Phe^6, Leu-NHEt^13, des-Met^14]Bombesin(6-14) [reference compound]
- Intracellular calcium release ([4]; 5 nM): 22.3±16.8 RFUs
- Intracellular calcium release ([4]; 50 nM): 42.0±20.4 RFUs

Compound: D-Phe-Gln-Trp-Ala-Val-Gly-His-Leu-L-Tac-NH2 [RC-3950-II]
- Ki [6]: 0.078 nM
